Laboratory results published in patent US8372592B2, “High resolution label free analysis of cellular properties” (X-Body, Inc., priority 2008, dated 2013).

Target: VCAM-1 and VLA-4 binding (J6 cells, which express VLA-4) (Homo sapiens, UniProt P05556+P13612)
Conditions: J6 cells + 1 mM Mn2+; EDTA added at the 110 minute mark; FIG. 4
Experimental: VCAM-1 can be fused or bound to a ZZ-binding domain from Protein A. The ZZ-binding domain will specifically bind to IgG immobilized on the surface of the biosensor. Cells that express VLA-4 will bind to the VCAM-1 adhesion protein, which is bound to IgG immobilized to the surface of the biosensor. Therefore cells expressing an adhesion protein ligand will be immobilized to the biosensor surface.
VCAM-1, which was fused to the ZZ-binding domain of Protein A, was added to a biosensor having IgG immobilized to its surface. J6 cells, which express VLA-4, were added to the biosensor surface. […] The “J6 cells+1 mM Mn^2+” and “Buffer” lines shown in FIG. 4 both contained J6 cells and 1 mM Mn^2+. The “J6 cells and EDTA” line contained J6 cells and EDTA. At the 110 minute mark, EDTA was added to the “J6 cells+1 mM Mn^2+” cells.

VCAM-1 and VLA-4 binding (J6 cells, which express VLA-4), sequence (P13612 34-1032): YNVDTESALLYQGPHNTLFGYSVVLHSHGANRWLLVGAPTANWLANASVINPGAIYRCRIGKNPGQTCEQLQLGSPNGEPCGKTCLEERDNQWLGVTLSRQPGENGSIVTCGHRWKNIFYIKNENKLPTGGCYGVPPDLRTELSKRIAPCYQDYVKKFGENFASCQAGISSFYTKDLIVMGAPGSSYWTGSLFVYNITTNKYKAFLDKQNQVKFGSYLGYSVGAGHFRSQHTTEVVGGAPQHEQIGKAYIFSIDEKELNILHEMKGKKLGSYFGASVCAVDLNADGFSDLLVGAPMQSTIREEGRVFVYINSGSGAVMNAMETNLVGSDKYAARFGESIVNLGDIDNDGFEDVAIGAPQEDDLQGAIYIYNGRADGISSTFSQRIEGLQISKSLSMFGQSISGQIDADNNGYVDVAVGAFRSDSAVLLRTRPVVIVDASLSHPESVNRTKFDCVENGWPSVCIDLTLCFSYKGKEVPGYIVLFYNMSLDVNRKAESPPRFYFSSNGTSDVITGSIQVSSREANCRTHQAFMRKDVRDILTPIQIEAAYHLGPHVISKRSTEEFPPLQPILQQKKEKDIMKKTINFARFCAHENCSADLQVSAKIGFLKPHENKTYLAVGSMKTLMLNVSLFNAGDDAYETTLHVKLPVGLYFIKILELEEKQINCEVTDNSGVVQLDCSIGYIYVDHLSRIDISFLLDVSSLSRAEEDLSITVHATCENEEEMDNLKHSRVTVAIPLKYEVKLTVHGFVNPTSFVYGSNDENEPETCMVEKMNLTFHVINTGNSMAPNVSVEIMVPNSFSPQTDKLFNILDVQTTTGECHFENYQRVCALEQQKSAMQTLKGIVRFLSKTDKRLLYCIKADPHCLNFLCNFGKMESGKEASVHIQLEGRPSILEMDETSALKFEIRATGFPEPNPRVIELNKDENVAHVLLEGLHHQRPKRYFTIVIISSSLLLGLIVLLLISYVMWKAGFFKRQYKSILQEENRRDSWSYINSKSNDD
VCAM-1 and VLA-4 binding (J6 cells, which express VLA-4), sequence (P05556 21-798): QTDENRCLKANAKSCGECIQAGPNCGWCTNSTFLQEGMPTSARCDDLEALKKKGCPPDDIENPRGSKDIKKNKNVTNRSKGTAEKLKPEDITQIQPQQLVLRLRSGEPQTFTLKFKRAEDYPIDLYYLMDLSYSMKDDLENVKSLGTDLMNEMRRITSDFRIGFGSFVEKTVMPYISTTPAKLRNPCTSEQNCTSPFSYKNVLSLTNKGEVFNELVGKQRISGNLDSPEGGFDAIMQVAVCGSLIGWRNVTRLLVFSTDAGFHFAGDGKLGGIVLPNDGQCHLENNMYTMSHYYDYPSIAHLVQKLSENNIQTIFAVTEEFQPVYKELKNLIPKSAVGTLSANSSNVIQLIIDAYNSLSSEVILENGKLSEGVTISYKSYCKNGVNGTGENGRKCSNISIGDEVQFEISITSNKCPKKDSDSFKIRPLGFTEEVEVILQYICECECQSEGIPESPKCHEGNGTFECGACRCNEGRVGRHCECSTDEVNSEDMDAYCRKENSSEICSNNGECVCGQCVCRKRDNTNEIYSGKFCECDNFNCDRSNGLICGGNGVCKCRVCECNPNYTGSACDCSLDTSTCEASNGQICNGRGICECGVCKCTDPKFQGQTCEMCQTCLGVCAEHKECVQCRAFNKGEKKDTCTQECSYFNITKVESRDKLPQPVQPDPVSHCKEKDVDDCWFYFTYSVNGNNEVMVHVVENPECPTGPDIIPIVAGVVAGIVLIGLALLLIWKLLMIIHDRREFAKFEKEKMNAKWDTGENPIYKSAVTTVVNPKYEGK

Q: Which “amount of binding of cells to the VCAM-1 immobilized to the surface of the biosensor” value does the source give for `O=C(O)CN(CCN(CC(=O)O)CC(=O)O)CC(=O)O` [EDTA] here?
A: Its value is “quickly dropped off”.
